Measured values reported in US20250388542A1, “ANALOGUES OF PENTAMIDINE AND USES THEREFOR” (Auransa Inc., priority 2018, published 2025).

What was measured:
Hep3B-luc = assay: CellTiter-Glo cell viability, liver cell lines, 8 days; format: cell-based; conditions: Hep 3B-Luc, 192 h, full growth media
Procedure: The objective of this study is to investigate the effect of Compound 1 on cell viability of various types of liver cancer. Ten (10) different liver cancer cell lines were employed in the study. Each liver cell line shown in Table 4 was treated with Compound 1, pentamidine, as reference control, a standard of care (cisplatin) and culture medium contains 0.2% [v/v] DMSO vehicle control and IC50 values were obtained as described above. The raw data values from the CellTiter-Glo™ cell viability assay expressed in relative luminescence units were normalized to the vehicle for each individual plate, and any reduction in luminescence indicated a decrease in viability (%). The data was analyzed in GraphPad PRISM using a non-linear sigmoidal plot with variable slope (asymmetric four-point linear regression), and an IC50 value for each compound was generated. The experiment tested pentamidine, compound 1, and standard-of-care control Cisplatin in full growth media for 8 days. Cells were initially treated with the test compounds on Day 0, and the cells were then replenished with fresh compound dilutions on Day 3. Pentamidine, Compound 1, and cisplatin were tested at 9 concentration points; 100, 33.33, 11.11, 3.70, 1.23, 0.41, 0.14, 0.05, and 0.02 μM (final DMSO concentration=0.5%). In particular, the IC50 values of pentamidine and Compound 1 were 0.8 and 0.6 μM in Hep3B-luc, respectively.
The experiment tested pentamidine, Compound 1, and standard of care control, cisplatin, in full growth media for 8 days. Hep-3b cells were initially treated with the test compounds on Day 0, and the cells were then replenished with fresh compound dilutions on Day 3. […] The raw data values from the CellTiter-Glo™ cell viability assay expressed in relative luminescence units were normalized to the vehicle for each individual plate, and any reduction in luminescence indicated a decrease in viability (%). The data was analyzed in GraphPad PRISM using a non-linear sigmoidal plot with variable slope (asymmetric four-point linear regression), and an IC50 value for each compound was generated. […]

[1] = Pharmacokinetics in liver and tissues after oral administration; format: in vivo, mice
Procedure: Compound 1 (20 mg per kg), Compound 5 (10 mg per kg), and pentamidine (20 mg per kg) were tested for their PK. Tissue samples were collected as described above in Example 23. Briefly, blood samples (approximately […]) were collected under light isoflurane anesthesia from retro orbital plexus of mice at 0.5, 1, 3, 8, 48 and 72 hr. Plasma samples were separated by centrifugation at 2,000×g for 6 minutes and stored below −70±10° C. until bioanalysis. Immediately after collection of blood, animals were euthanized using excess CO2 asphyxiation and samples were collected from set of five mice at each time point. Collected tissue samples were immediately dipped and rinsed three times in ice cold PBS (for 5-10 seconds/rinse using ˜5-10 mL fresh PBS in disposable petri dish for each rinse) and dried on blotting paper. Tissue samples were homogenized using ice-cold phosphate buffer saline (pH7.4) and homogenates were stored below −70±10° C. until analysis. Total homogenate volume was three times the tissue weight except for liver samples, total homogenate volume was ten times the liver weight. Bioanalysis process was determined by fit-for-purpose LC-MS/MS method.
Calibration standards were prepared by spiking the test compound into blank plasma. 10 μL of working calibration standard was spiked into 190 μL of blank Mice Plasma or tissue homogenate to generate linearly spiked calibration standards. Calibrator concentrations were 5,000, 2,000, 1,000, 200, 100, 20, 10, 2 and 1 ng/mL. Calibration standard samples were processed along with the test samples. Twenty-five μL aliquots of plasma or tissue homogenate test samples were treated with 100 μL of acetonitrile containing internal standard (500 ng/mL Glipizide). Samples were vortexed for 5 minutes. Samples were centrifuged for 10 minutes at a speed of 4000 rpm at 4° C. Following centrifugation, 100 μL of clear supernatant was transferred in 96-well plates of and analyzed using LC-MS/MS. Chromatographic separation was achieved using a Kintex Polar column (C18, 100×4.6 mm, 5μ) and column oven temperature 45° C. For compound 1 diHCl the mobile phase A was water with 0.1% formic acid in Acetonitrile; mobile phase B was 10 mM ammonium formate. However, the mobile phase for pentamidine and Compound 5 mobile phase A was water with 0.1% formic acid and mobile phase B acetonitrile with 0.1% formic acid.
The gradient program for Compound 1 was as follows: 5% B (1-2.40 min), 90% B (2.60-3.00 min), and the initial for B was 90%. The retention rate was 1.47 per minute and the internal standard Glipizide was 1 per 9 minutes. The column was maintained at 45° C. For pentamidine and Compound 5, analysis was performed using 233 MassSpec by AB Sciex API5000 with Turbo Ion Spray interface operating in a positive ionization mode. Quantification was performed using multiple reaction monitoring (MRM) method with the transitions of (m/z) 328 à (m/z) 311 for Compound 5 and (m/z) 548 à (m/z) 366 for Edoxaban (internal standard). While, for pentamidine (m/z) 341 à (m/z) 324 and (m/z) 548 à (m/z) 366 for Verapmil (internal standard).
The gradient program for Compound 5 was as follows: 10% B (0-0.2 min), 95% B (1.5-2 min), the initial for B was 10% and it stopped at 2.6 mins. The flow rate was 0.5 mL/min. The gradient program for pentamidine was as follows: 10% B (0-0.2 min), 95% B (1.4-2 min), the initial for B was 10% and it stopped at 2.5 mins. The flow rate was 0.5 mL/min.

For `N=C(N)c1ccc(OCCCCCOc2ccc(C(=N)N)nc2)cc1` [Compound 1, 5-(5-(4-carbamimidoylphenoxy)pentyloxy)picolinimidamide], the IC50 (Hep3B-luc) was 600 nM, the “Cmax normalized to dose, liver, relative to pentamidine” value ([1]; 20 mpk p.o. both) was about 7 folds and the “exposure to the liver vs pentamidine (20 mpk)” value ([1]; Compound 1 20 mpk, Compound 5 10 mpk, p.o.) was “greater exposure to the liver than pentamidine”. For the same compound, the half-life vs pentamidine ([1]; liver, p.o.) was “higher half-life than pentamidine”, the tissue exposure ([1]; liver, small intestine, ileum, p.o.) was “increased exposure in the liver as well as small intestine and ileum” and the “exposure to the plasma” value ([1]; plasma vs other tissues, p.o.) was “low in comparison to other tissues”.
